{"source": "ChEMBL document CHEMBL1201862", "about": "“PubChem BioAssay data set” (2004)", "key": {"[1]": {"test": "THP-1 cell cytotoxicity, dose response, cytotoxicity control for non-replicating M. tuberculosis project (AID 489025)", "type": "functional"}, "[2]": {"test": "Vero E6 cell cytotoxicity, dose response, cytotoxicity control for non-replicating M. tuberculosis project, secondary assay (AID 492998)", "type": "functional, VeroE6", "details": "Vero C1008"}, "Aminopeptidase N": {"biological_target": "T1, Aminopeptidase N (Plasmodium falciparum FcB1/Columbia, UniProt O96935)", "T1 sequence (O96935 whole entry)": "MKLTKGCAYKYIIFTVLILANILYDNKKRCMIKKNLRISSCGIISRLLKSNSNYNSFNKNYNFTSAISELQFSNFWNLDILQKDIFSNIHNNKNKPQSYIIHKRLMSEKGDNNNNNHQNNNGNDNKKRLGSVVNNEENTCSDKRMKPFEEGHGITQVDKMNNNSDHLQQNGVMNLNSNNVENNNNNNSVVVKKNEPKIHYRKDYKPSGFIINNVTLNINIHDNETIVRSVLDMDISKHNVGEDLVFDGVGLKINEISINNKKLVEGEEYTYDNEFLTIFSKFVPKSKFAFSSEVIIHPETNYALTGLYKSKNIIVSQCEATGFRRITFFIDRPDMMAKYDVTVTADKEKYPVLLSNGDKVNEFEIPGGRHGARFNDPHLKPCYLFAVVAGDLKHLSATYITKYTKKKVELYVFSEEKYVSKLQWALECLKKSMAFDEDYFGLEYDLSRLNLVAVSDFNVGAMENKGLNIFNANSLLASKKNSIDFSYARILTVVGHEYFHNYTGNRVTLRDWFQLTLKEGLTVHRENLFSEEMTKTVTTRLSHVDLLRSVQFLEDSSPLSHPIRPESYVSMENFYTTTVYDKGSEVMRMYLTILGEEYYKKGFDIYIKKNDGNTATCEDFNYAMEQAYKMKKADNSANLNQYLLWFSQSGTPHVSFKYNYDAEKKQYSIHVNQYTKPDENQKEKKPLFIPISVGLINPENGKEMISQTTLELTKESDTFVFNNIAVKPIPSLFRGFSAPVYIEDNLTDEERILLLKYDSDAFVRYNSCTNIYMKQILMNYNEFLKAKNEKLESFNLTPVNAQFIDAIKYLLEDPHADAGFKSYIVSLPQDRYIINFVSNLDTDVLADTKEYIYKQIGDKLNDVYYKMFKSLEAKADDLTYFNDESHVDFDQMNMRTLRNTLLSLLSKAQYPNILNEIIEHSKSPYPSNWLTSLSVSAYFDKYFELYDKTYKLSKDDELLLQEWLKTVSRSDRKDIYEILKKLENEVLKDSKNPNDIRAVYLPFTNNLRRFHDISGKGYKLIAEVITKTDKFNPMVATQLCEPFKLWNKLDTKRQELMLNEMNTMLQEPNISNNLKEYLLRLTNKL", "test": "malaria alanyl aminopeptidase activity blockers – biochemical, fluorogenic H-Leu-NHMec substrate, 1536-well (AID 1445)", "parameters": "species or system Plasmodium falciparum 3D7, 3D7"}, "Nonstructural protein 1": {"biological_target": "Nonstructural protein 1 (Influenza A virus, UniProt Q194T2)", "sequence (Q194T2 whole entry)": "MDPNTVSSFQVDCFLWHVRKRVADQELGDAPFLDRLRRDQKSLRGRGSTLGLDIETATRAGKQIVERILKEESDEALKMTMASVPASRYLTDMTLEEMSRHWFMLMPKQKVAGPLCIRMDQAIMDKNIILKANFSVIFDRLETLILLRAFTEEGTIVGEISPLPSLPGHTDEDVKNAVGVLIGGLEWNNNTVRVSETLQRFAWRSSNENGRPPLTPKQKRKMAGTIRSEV", "type": "functional, Influenza A virus (A/California/07/2009(H1N1))"}, "cells": {"test": "cells", "type": "functional"}, "[3]": {"test": "Trypanosoma cruzi growth suppression in host cells – NIH3T3 host cells, beta-gal luminescence, confirmation (AID 2044);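 also: intracellular parasites grown in NIH/3T3 mouse fibroblasts as host cells; luminescent beta-galactosidase reporter signal from transgenic T. cruzi replicating inside host cells; inhibitors lower the luminescence signal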", "type": "functional, cell-based"}, "[4]": {"test": "NIH3T3 cell viability loss – ATP luminescence, mouse fibroblasts, counter-screen, dose response (AID 2010);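 also: cells exposed to compound for about 90 hours before reading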", "type": "functional, cell-based"}, "[5]": {"biological_target": "T2, Ubiquitin-conjugating enzyme E2 N (Homo sapiens, UniProt P61088)", "T2 sequence (P61088 whole entry)": "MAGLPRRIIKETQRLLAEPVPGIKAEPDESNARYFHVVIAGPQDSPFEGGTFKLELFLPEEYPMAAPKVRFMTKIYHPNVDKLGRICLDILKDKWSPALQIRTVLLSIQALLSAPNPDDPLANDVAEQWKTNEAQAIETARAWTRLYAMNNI", "type": "functional"}, "[6]": {"biological_target": "T3, Replicative DNA helicase DnaB (Mycobacterium tuberculosis, UniProt P9WMR3)", "T3 sequence (P9WMR3 whole entry)": "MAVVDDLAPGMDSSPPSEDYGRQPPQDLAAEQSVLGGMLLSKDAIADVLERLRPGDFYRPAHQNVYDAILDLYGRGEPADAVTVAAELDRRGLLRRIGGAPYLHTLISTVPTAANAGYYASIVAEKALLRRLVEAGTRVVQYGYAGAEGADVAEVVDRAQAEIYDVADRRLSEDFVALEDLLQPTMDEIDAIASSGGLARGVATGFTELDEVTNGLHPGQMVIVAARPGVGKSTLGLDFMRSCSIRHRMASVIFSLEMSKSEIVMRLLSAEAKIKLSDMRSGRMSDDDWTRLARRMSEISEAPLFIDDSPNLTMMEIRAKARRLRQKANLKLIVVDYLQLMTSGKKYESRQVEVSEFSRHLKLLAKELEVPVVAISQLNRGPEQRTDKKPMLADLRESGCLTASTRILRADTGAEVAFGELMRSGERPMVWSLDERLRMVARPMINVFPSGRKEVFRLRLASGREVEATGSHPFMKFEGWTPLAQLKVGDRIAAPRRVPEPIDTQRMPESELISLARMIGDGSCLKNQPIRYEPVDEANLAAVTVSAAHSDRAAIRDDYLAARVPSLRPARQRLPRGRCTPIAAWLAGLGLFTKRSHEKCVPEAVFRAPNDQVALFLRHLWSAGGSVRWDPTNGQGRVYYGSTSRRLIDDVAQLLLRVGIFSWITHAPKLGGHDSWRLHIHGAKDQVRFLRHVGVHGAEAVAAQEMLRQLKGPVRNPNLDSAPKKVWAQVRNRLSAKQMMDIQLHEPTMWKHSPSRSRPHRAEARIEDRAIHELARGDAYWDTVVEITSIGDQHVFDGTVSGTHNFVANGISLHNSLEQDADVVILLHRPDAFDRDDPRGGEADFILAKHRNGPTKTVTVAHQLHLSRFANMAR", "test": "DnaB intein splicing inhibitors, dose response, biochemical, cell-free fluorescence (AID 449749)", "type": "functional"}, "Protein RecA": {"biological_target": "T4, Protein RecA (Mycobacterium tuberculosis, UniProt P9WHJ3)", "T4 sequence (P9WHJ3 whole entry)": "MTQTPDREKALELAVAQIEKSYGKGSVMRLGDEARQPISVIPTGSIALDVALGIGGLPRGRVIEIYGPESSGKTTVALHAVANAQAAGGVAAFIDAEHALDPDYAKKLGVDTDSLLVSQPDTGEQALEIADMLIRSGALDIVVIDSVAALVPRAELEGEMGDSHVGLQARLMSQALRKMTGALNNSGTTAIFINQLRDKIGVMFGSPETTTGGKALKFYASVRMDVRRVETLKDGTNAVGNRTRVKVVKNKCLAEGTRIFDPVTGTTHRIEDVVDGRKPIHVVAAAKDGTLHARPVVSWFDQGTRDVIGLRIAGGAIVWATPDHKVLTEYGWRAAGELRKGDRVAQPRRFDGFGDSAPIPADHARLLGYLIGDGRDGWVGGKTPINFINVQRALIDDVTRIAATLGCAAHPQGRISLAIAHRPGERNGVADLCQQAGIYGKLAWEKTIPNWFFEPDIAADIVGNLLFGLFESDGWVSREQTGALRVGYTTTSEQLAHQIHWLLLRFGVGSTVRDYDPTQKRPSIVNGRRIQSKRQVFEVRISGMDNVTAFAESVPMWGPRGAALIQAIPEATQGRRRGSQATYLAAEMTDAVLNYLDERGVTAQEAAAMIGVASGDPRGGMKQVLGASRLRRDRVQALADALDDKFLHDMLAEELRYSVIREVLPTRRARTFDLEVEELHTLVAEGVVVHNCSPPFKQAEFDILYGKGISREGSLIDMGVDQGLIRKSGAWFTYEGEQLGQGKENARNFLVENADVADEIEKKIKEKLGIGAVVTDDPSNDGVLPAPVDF", "test": "Fluorescence Cell-Free Homogeneous Dose Retest to Identify Inhibitors of RecA-Intein Splicing Activity. [Related pubchem assays (depositor defined):AID2097, AID2223, AID489010, AID492950]", "type": "functional"}, "Genome polyprotein": {"biological_target": "Genome polyprotein (dengue virus type 2, UniProt P29990)", "sequence (P29990 2492-3391 limits assumed)": "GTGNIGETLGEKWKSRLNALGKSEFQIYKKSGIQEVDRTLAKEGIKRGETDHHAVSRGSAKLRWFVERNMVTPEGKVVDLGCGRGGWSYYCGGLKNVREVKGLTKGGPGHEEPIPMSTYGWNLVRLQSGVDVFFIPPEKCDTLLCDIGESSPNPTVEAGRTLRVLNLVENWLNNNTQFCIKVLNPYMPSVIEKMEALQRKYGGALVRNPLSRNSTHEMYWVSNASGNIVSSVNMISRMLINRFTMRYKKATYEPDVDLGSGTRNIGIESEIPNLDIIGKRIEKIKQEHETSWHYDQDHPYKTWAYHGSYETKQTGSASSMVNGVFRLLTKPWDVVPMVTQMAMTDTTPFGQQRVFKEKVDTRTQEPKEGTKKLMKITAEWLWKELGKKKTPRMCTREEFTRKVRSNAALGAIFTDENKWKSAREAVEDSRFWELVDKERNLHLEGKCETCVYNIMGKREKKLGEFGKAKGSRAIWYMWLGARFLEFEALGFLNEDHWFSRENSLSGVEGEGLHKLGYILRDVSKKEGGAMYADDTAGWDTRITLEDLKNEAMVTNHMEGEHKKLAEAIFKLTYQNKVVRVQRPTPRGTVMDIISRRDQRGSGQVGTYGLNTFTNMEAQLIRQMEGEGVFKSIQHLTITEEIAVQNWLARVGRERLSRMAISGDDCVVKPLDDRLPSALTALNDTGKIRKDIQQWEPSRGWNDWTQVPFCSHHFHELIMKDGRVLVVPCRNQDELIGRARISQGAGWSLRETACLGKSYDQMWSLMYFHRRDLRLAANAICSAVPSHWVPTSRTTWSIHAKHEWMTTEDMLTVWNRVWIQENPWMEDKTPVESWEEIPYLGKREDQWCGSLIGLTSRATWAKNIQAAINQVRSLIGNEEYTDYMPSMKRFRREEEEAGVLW", "test": "flavivirus cap methylation enzyme inhibition – biochemical, confirmation dose response, primary screen (AID 588689)", "type": "functional"}}, "note": "Active and inactive are the calls of the source."}
{"smiles": "COc1ccc(CCCC(=O)NCc2ccccc2)cc1C", "values": [{"measurement": "CC50", "setting": "[1]", "value": "9.44 µM (active)"}, {"measurement": "CC50", "setting": "[2]", "value": "> 20 µM (active)"}]}
{"smiles": "COc1cc(/C=C2\\SC(c3ccccc3)=NC2=O)cc(Cl)c1O", "values": [{"measurement": "IC50", "setting": "Aminopeptidase N", "value": "20 µM (active)"}, {"measurement": "IC50", "setting": "Nonstructural protein 1", "value": "12.7 µM (active)"}]}
{"smiles": "O=C(CC(=O)c1ccccc1O)c1cccc(F)c1", "values": [{"measurement": "CC50", "setting": "[1]", "value": "> 40 µM (active)"}, {"measurement": "CC50", "setting": "[2]", "value": "16.5 µM (active)"}, {"measurement": "IC50", "setting": "cells", "value": "17.4 µM (active)"}]}
{"smiles": "O=C(Nc1ccccc1N1CCN(C(=O)c2ccc(Cl)cc2)CC1)c1ccc([N+](=O)[O-])o1", "values": [{"measurement": "EC50", "setting": "[3]", "value": "1.32 µM (active)"}, {"measurement": "EC50", "setting": "[4]", "value": "37.2 µM (active)"}, {"measurement": "CC50", "setting": "[1]", "value": "12.8 µM (active)"}, {"measurement": "CC50", "setting": "[2]", "value": "5.96 µM (active)"}]}
{"smiles": "CCc1ccc(OCC(=O)NNC(=O)c2cnccn2)c(Br)c1", "values": [{"measurement": "CC50", "setting": "[1]", "value": "> 40 µM (active)"}, {"measurement": "IC50", "setting": "[5]", "value": "> 20 µM (inactive)"}, {"measurement": "CC50", "setting": "[2]", "value": "18.8 µM (active)"}, {"measurement": "IC50", "setting": "cells", "value": "9.66 µM (active)"}]}
{"smiles": "Oc1c2c(nc3c(-c4ccccc4)cnn13)CCCC2", "values": [{"measurement": "CC50", "setting": "[1]", "value": "> 40 µM (active)"}, {"measurement": "CC50", "setting": "[2]", "value": "> 20 µM (active)"}, {"measurement": "IC50", "setting": "cells", "value": "44 µM (active)"}]}
{"smiles": "Cc1oc2cc([N+](=O)[O-])c(O)c([N+](=O)[O-])c2c1C(=O)c1ccc(Br)cc1", "values": [{"measurement": "IC50", "setting": "Aminopeptidase N", "value": "77 µM (active)"}, {"measurement": "AC50", "setting": "[6]", "value": "8.65 µM (active)"}, {"measurement": "EC50", "setting": "Protein RecA", "value": "7.96 µM (active)"}, {"measurement": "IC50", "setting": "Genome polyprotein", "value": "45.2 µM (active)"}]}
